The results in this text go back to patent US8232401B2 (Japan Tobacco Inc., priority 2002, dated 2012).

Molecules are shown by their SMILES. pIC50: −log10 of the molar value.

The test deals with T1, HIV integrase (Human immunodeficiency virus type 1 group M subtype B, UniProt P12497, F1332H).
T1 construct: HIV integrase full length gene; made in house; host or cells: Escherichia coli BL21(DE3)
The test is described as follows: Determination of enzyme (HIV integrase) inhibitory activity (strand transfer, microtiter plate, absorbance at 450 nm). The format is biochemical, HIV (Human Immunodeficiency Virus (type 1)). The settings on record: recombinant HIV integrase (F185H) expressed in E. coli; donor DNA on streptavidin plate, digoxigenin target DNA; 37° C. The procedure:
The following explains evaluation methods of the HIV integrase inhibitory activity of the compound of the present invention.
(i) Construction of Recombinant Integrase Gene Expression System
(ii) Production and Purification of Integrase Protein
Escherichia coli recombinant BL21(DE3) transformed with plasmid pET21a-IN-F185H obtained in (i) was shake cultured at 30° C. in a liquid medium containing ampicillin. When the culture reached the logarithmic growth phase, isopropyl-β-D-thiogalactopyranoside was added to promote expression of integrase gene. The culture was continued for 3 hrs to promote accumulation of the integrase protein. The recombinant E. coli was collected in pellets by centrifugal separation and preserved at −80° C.
The E. coli was suspended in Lysis buffer (20 mM HEPES (pH 7.5), 5 mM DTT, 10 mM CHAPS, 10% glycerol) containing 1M sodium chloride and subjected to repeat pressurization and depressurization for rupture, and centrifugal separation at 4° C., 40,000×g, 60 min to recover a water-soluble fraction (supernatant). This was diluted 10-fold with Lysis buffer free of sodium chloride, mixed with SP-Sepharose (Pharmacia Corporation) and stirred at 4° C. for 60 min to allow adsorption of integrase protein to the resin. The resin was washed with Lysis buffer containing 100 mM sodium chloride and the integrase protein was eluted with Lysis buffer containing 1M sodium chloride.
The eluted integrase protein solution was applied to a Superdex 75 (Pharmacia Corporation) column for gel filtration. The protein was eluted with Lysis buffer containing 1M sodium chloride.
The obtained fractions of the integrate protein were collected and preserved at −80° C.
(iii) Preparation of DNA Solution
The following DNA synthesized by Greiner was dissolved in TE buffer (10 mM Tris-hydrochloric acid (pH 8.0), 1 mM EDTA) and mixed with donor DNA, target DNA, each complementary strand (+ and − strands) to 1 μM. The mixture was heated at 95° C. for 5 min, 80° C. for 10 min, 70° C. for 10 min, 60° C. for 10 min, 50° C. for 10 min and 40° C. for 10 min and preserved at 25° C. to give a double stranded DNA, which was used for the test. Donor DNA (− strand having biotin attached to the 5′ terminal)
(iv) Determination of Enzyme (HIV Integrase) Inhibitory activity
The donor DNA was diluted with TE buffer to 10 nM, of which 50 μl was added to each well of streptavidin-coated microtiter plate (Roche) and allowed to adsorb at 37° C. for 60 min. The DNA was washed with phosphate buffer (Dulbecco PBS, Sanko Junyaku Co., Ltd.) containing 0.1% Tween 20 and phosphate buffer. Then, a reaction mixture (70 μl) having the following composition, a test substance (10 μl) diluted with the reaction mixture and […] integrase protein (10 μl) were added to each well and reacted at 37° C. for 60 min.
Then, 50 nM target DNA (1.0 μl) was added, reacted at 37° C. for 10 min and washed with phosphate buffer containing 0.1% Tween 20 to stop the reaction.
Then, 100 mU/ml peroxidase labeled anti-digoxigenin antibody solution (Roche, 100 μl) was added, and the mixture was reacted at 37° C. for 60 min, followed by washing with phosphate buffer containing 0.1% Tween 20.
A peroxidase color solution (Bio Rad, 100 μl) was added and allowed to react at room temperature for 4 min. The color reaction was stopped by adding 1N sulfuric acid (100 μl). The absorbance at 450 nm was measured.
The HIV integrase inhibitory activity (IC50) of the compound of the present invention was calculated from the inhibition rate according to the following formula. […] Evaluation of Antiviral Activity
With `O=C(O)c1cn(CCO)c2c(F)cc(Cc3cccc(Cl)c3Cl)cc2c1=O` [Example 1-2, 6-(2,3-dichlorobenzyl)-1,4-dihydro-8-fluoro-1-(2-hydroxyethyl)-4-oxo-3-quinolinecarboxylic acid], the pIC50 (in general, −log10 of the IC50, conventionally taken in molar units) was 7.48.

With `CS(=O)(=O)NCCn1cc(C(=O)O)c(=O)c2cc(Cc3cccc(Cl)c3Cl)ccc21` [Example 1-3, 6-(2,3-Dichlorobenzyl)-1-(2-methanesulfonylaminoethyl)-4-oxo-1,4-dihydroquinoline-3-carboxylic acid], the pIC50 was 6.44.

Take `O=C(O)c1cn(CCn2ccnc2)c2ccc(Cc3cccc(Cl)c3Cl)cc2c1=O` [Example 1-4, 6-(2,3-Dichlorobenzyl)-1-(2-imidazol-1-ylethyl)-4-oxo-1,4-dihydroquinoline-3-carboxylic acid]: the pIC50 was 6.62.

As to `CNC(=O)Cn1cc(C(=O)O)c(=O)c2cc(Cc3cccc(Cl)c3Cl)ccc21` [Example 1-6, 6-(2,3-Dichlorobenzyl)-1-methylcarbamoylmethyl-4-oxo-1,4-dihydroquinoline-3-carboxylic acid], the pIC50 was 6.85.

Consider `NC(=O)Cn1cc(C(=O)O)c(=O)c2cc(Cc3cccc(Cl)c3Cl)ccc21` [Example 1-7, 1-Carbamoylmethyl-6-(2,3-Dichlorobenzyl)-4-oxo-1,4-dihydroquinoline-3-carboxylic acid], for which the pIC50 was 7.17.

On to `CC(C)n1cc(C(=O)O)c(=O)c2cc(Cc3cccc(Cl)c3Cl)ccc21` [Example 1-8, 6-(2,3-Dichlorobenzyl)-1-isopropyl-4-oxo-1,4-dihydroquinoline-3-carboxylic acid], for which the pIC50 is 7.34.

`NS(=O)(=O)Cn1cc(C(=O)O)c(=O)c2cc(Cc3cccc(Cl)c3Cl)ccc21` [Example 1-9, 6-(2,3-Dichlorobenzyl)-4-oxo-1-sulfamoylmethyl-1,4-dihydroquinoline-3-carboxylic acid]: the pIC50 is 7.77.

For the molecule `O=C(O)CCn1cc(C(=O)O)c(=O)c2cc(Cc3cccc(Cl)c3Cl)ccc21` [Example 1-10, 1-(2-Carboxyethyl)-6-(2,3-dichlorobenzyl)-4-oxo-1,4-dihydroquinoline-3-carboxylic acid], the pIC50 was 7.14.

Take `O=C(O)c1cn(CCO)c2ccc(Cc3cccc4ccccc34)cc2c1=O` [Example 1-11, 1-(2-Hydroxyethyl)-6-naphthalen-1-ylmethyl-4-oxo-1,4-dihydroquinoline-3-carboxylic acid]: the negative-log IC50 (pIC50) is 6.74.

For the molecule `COC(=O)c1cn(CCO)c2ccc(Cc3cccc(Cl)c3Cl)cc2c1=O` [Example 1-12, 6-(2,3-Dichlorobenzyl)-1-(2-hydroxyethyl)-4-oxo-1,4-dihydroquinoline-3-carboxylic acid methyl ester], the pIC50 is 6.15.

With `NC(=O)CCn1cc(C(=O)O)c(=O)c2cc(Cc3cccc(Cl)c3Cl)ccc21` [Example 1-13, 1-(2-Carbamoylethyl)-6-(2,3-dichlorobenzyl)-4-oxo-1,4-dihydroquinoline-3-carboxylic acid], the pIC50 is 6.85.

Consider `CC(=O)Cn1cc(C(=O)O)c(=O)c2cc(Cc3cccc(Cl)c3Cl)ccc21` [Example 1-14, 6-(2,3-Dichlorobenzyl)-4-oxo-1-(2-oxopropyl)-1,4-dihydroquinoline-3-carboxylic acid], for which the pIC50 was 7.12.

As to `O=C(O)c1cn(Cc2ccccc2)c2ccc(Cc3cccc(Cl)c3Cl)cc2c1=O` [Example 1-15, 1-Benzyl-6-(2,3-dichlorobenzyl)-4-oxo-1,4-dihydroquinoline-3-carboxylic acid], the pIC50 is 6.64.

`O=C(O)c1cn(CCc2ccccc2)c2ccc(Cc3cccc(Cl)c3Cl)cc2c1=O` [Example 1-16, 6-(2,3-Dichlorobenzyl)-4-oxo-1-phenethyl-1,4-dihydroquinoline-3-carboxylic acid]: the pIC50 was 7.49.

For `O=C(O)c1cn(CCCc2ccccc2)c2ccc(Cc3cccc(Cl)c3Cl)cc2c1=O` [Example 1-17, 6-(2,3-Dichlorobenzyl)-1-(3-phenylpropyl)-4-oxo-1,4-dihydroquinoline-3-carboxylic acid], the pIC50 was 7.08.

Regarding `CC(C)Cn1cc(C(=O)O)c(=O)c2cc(Cc3cccc(Cl)c3Cl)ccc21` [Example 1-18, 6-(2,3-Dichlorobenzyl)-1-isobutyl-4-oxo-1,4-dihydroquinoline-3-carboxylic acid], the negative-log IC50 (pIC50) is 6.92.

Regarding `O=C(O)c1cn(CCCCc2ccccc2)c2ccc(Cc3cccc(Cl)c3Cl)cc2c1=O` [Example 1-19, 6-(2,3-Dichlorobenzyl)-1-(4-phenylbutyl)-4-oxo-1,4-dihydroquinoline-3-carboxylic acid], the pIC50 is 7.09.

On to `O=C(O)c1cn(Cc2ccccc2-c2ccccc2)c2ccc(Cc3cccc(Cl)c3Cl)cc2c1=O` [Example 1-20, 1-Biphenyl-2-ylmethyl-6-(2,3-dichlorobenzyl)-4-oxo-1,4-dihydroquinoline-3-carboxylic acid], for which the pIC50 is 6.16.

Take `O=C(O)c1cn(CCCCO)c2ccc(Cc3cccc(Cl)c3Cl)cc2c1=O` [Example 1-21, 6-(2,3-Dichlorobenzyl)-1-(4-hydroxybutyl)-4-oxo-1,4-dihydroquinoline-3-carboxylic acid]: the pIC50 was 7.13.

With `O=C(O)c1cn(Cc2cc3ccccc3s2)c2ccc(Cc3cccc(Cl)c3Cl)cc2c1=O` [Example 1-22, 1-Benzo[b]thiophen-2-ylmethyl-6-(2,3-dichlorobenzyl)-4-oxo-1,4-dihydroquinoline-3-carboxylic acid], the pIC50 is 6.96.

With `O=C(O)c1cn(Cc2ccc(Cl)c(Cl)c2)c2ccc(Cc3cccc(Cl)c3Cl)cc2c1=O` [Example 1-23, 6-(2,3-dichlorobenzyl)-1-(3,4-dichlorobenzyl)-4-oxo-1,4-dihydroquinoline-3-carboxylic acid], the pIC50 was 6.72.

On to `CN(C)CCn1cc(C(=O)O)c(=O)c2cc(Cc3cccc(Cl)c3Cl)ccc21` [Example 1-24, 6-(2,3-Dichlorobenzyl)-1-(2-dimethylaminoethyl)-4-oxo-1,4-dihydroquinoline-3-carboxylic acid], for which the pIC50 is 6.54.

Take `O=C(O)c1cn(CCCO)c2ccc(Cc3cccc(Cl)c3Cl)cc2c1=O` [Example 1-25, 6-(2,3-Dichlorobenzyl)-1-(3-hydroxypropyl)-4-oxo-1,4-dihydroquinoline-3-carboxylic acid]: the pIC50 is 6.80.

`COCCn1cc(C(=O)O)c(=O)c2cc(Cc3cccc(Cl)c3Cl)ccc21` [Example 1-26, 6-(2,3-Dichlorobenzyl)-1-(2-methoxyethyl)-4-oxo-1,4-dihydroquinoline-3-carboxylic acid]: the pIC50 is 6.74.

With `O=C(O)c1cn(CC(F)(F)F)c2ccc(Cc3cccc(Cl)c3Cl)cc2c1=O` [Example 1-27, 6-(2,3-Dichlorobenzyl)-1-(2,2,2-trifluoroethyl)-4-oxo-1,4-dihydroquinoline-3-carboxylic acid], the pIC50 was 7.12.

With `O=C(O)Cn1cc(C(=O)O)c(=O)c2cc(Cc3cccc(Cl)c3Cl)ccc21` [Example 1-28, 1-Carboxymethyl-6-(2,3-dichlorobenzyl)-4-oxo-1,4-dihydroquinoline-3-carboxylic acid], the pIC50 was 7.23.

On to `Cc1ncsc1CCn1cc(C(=O)O)c(=O)c2cc(Cc3cccc(Cl)c3Cl)ccc21` [Example 1-29, 6-(2,3-Dichlorobenzyl)-1-[2-(4-methylthiazol-5-yl)ethyl]-4-oxo-1,4-dihydroquinoline-3-carboxylic acid], for which the pIC50 was 6.62.

Turning to `CC(O)Cn1cc(C(=O)O)c(=O)c2cc(Cc3cccc(Cl)c3Cl)ccc21` (centres unmarked) [Example 1-30, 6-(2,3-Dichlorobenzyl)-1-(2-hydroxypropyl)-4-oxo-1,4-dihydroquinoline-3-carboxylic acid], the negative-log IC50 (pIC50) was 6.85.

For the molecule `O=C(O)c1cn(CCO)c2ccc(Cc3cccc(Cl)c3)cc2c1=O` [Example 1-31], the pIC50 is 6.77.
